Experimental findings from PubChem BioAssay AID264 (DTP/NCI, 2004) are described below.

Inconclusive results are not listed.

The experiment deals with nude mice, LX-1 lung xenograft intrarenal, tumor weight T/C. Description: NCI In Vivo Anticancer Drug Screen. Data for tumor model Human Lung LX-1 Xenograft (intrarenal inoculation) in NU/NU Swiss (nude) mice. The note with it: endpoint: mean tumor weight change, higher = larger tumour. The essentials:
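In vivo, transplantable tumor; compound vs vehicle arms; tumor size measured; value = T/C.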

The mark [1] stands for this setting: dose: 200.0 mg/kg/injection, schedule: Q01DX010 (sc), vehicle: saline with Tween-80.

Take `N=C(N)Sc1ccccn1`: the T/C (dose: 1.25 mg/kg/injection, schedule: Q01DX010 (sc), vehicle: saline) was 83 % of control; the T/C (dose: 2.5 mg/kg/injection, schedule: Q01DX010 (sc), vehicle: saline) was 72 % of control; the T/C (dose: 5.0 mg/kg/injection, schedule: Q01DX010 (sc), vehicle: saline) is 52 % of control; the T/C (dose: 10.0 mg/kg/injection, schedule: Q01DX010 (sc), vehicle: saline) is 29 % of control; the T/C (dose: 25.0 mg/kg/injection, schedule: Q01DX010 (sc), vehicle: saline) is 158 % of control; the T/C (dose: 50.0 mg/kg/injection, schedule: Q01DX010 (sc), vehicle: saline) is 167 % of control.
Take `CC(=O)[O][Pb]([O]C(C)=O)([c]1ccccc1)[c]1ccccc1`: where the note is “dose: 400.0 mg/kg/injection, schedule: Q01DX010 (sc), vehicle: Klucel (hydroxypropylcellulose) (HPC)”, the T/C is 40 % of control.
As for `c1cnc2ncncc2n1`, the T/C runs as follows: (dose: 50.0 mg/kg/injection, schedule: Q04DX003 (sc), vehicle: saline with Tween-80) 150 % of control; (dose: 100.0 mg/kg/injection, schedule: Q04DX003 (sc), vehicle: saline with Tween-80) 81 % of control.
As to `O=c1[nH]c(=O)n(C2OC(CO)C(O)C2O)cc1F` (stereo unspecified), the T/C is, setting by setting: (dose: 9.37 mg/kg/injection, schedule: Q04DX003 (sc), vehicle: saline) 77 % of control; (dose: 18.75 mg/kg/injection, schedule: Q04DX003 (sc), vehicle: saline) 26 % of control.
`c1ccc2c(NCCCCCCNc3c4ccccc4nc4ccccc34)c3ccccc3nc2c1`: the T/C (dose: 5.0 mg/kg/injection, schedule: Q01DX010 (sc), vehicle: Klucel (hydroxypropylcellulose) (HPC)) is 102 % of control.
Regarding `Cc1ccccc1SSc1ccccc1C`, the T/C by setting is: under setting [1], 268 % of control; (dose: 400.0 mg/kg/injection, schedule: Q01DX010 (sc), vehicle: saline with Tween-80) 99 % of control.
As to `c1cc(NC2CCCCC2)ccc1CN1CCOCC1`, the T/C is, setting by setting: (dose: 50.0 mg/kg/injection, schedule: Q01DX010 (sc), vehicle: saline + Tween-80 + alcohol) 38 % of control; (dose: 100.0 mg/kg/injection, schedule: Q01DX010 (sc), vehicle: saline + Tween-80 + alcohol) 74 % of control; (dose: 800.0 mg/kg/injection, schedule: Q01DX010 (sc), vehicle: saline + Tween-80 + alcohol) 84 % of control; (dose: 1600.0 mg/kg/injection, schedule: Q01DX010 (sc), vehicle: saline + Tween-80 + alcohol) 84 % of control.
In the case of `CNC(=O)OCc1c(COC(=O)NC)c(-c2ccc(Cl)c(Cl)c2)n2c1Cc1ccccc1C2`, the T/C runs as follows: (dose: 150.0 mg/kg/injection, schedule: Q04DX003 (sc), vehicle: distilled water + Tween-80) 97 % of control; (dose: 300.0 mg/kg/injection, schedule: Q04DX003 (sc), vehicle: distilled water + Tween-80) 71 % of control; (dose: 600.0 mg/kg/injection, schedule: Q04DX003 (sc), vehicle: distilled water + Tween-80) 58 % of control; (dose: 1200.0 mg/kg/injection, schedule: Q04DX003 (sc), vehicle: distilled water + Tween-80) 54 % of control.
On to `COc1c(O)c2c(c3cc(C(=O)N4CCc5c4c(O)c(OC)c4[nH]c(C(=O)N6CC7CC78C6=CC(=O)c6[nH]cc(C)c68)cc54)[nH]c13)CCN2C(N)=O` (stereo unspecified), for which the T/C is, setting by setting: (dose: 6.25 micrograms/kg/injection, schedule: Q01DX010 (sc), vehicle: DMSO) 121 % of control; (dose: 12.5 micrograms/kg/injection, schedule: Q01DX010 (sc), vehicle: DMSO) 107 % of control; (dose: 25.0 micrograms/kg/injection, schedule: Q01DX010 (sc), vehicle: DMSO) 68 % of control; (dose: 50.0 micrograms/kg/injection, schedule: Q01DX010 (sc), vehicle: DMSO) 66 % of control.
As for `CCc1nc(N)nc(N)c1-c1ccc(Cl)c([N+](=O)[O-])c1`, the T/C was 99 % of control (dose: 9.38 mg/kg/injection, schedule: Q04DX003 (sc), vehicle: saline with Tween-80); 108 % of control (dose: 18.75 mg/kg/injection, schedule: Q04DX003 (sc), vehicle: saline with Tween-80); 99 % of control (dose: 37.5 mg/kg/injection, schedule: Q04DX003 (sc), vehicle: saline with Tween-80); 119 % of control (dose: 75.0 mg/kg/injection, schedule: Q04DX003 (sc), vehicle: saline with Tween-80).
`COc1cc2c(c(OC)c1OC)-c1ccc(OC)c(=O)cc1[C@@H](N)CC2`: the T/C (dose: 0.31 mg/kg/injection, schedule: Q01DX010 (sc), vehicle: Klucel (hydroxypropylcellulose) (HPC)) was 104 % of control; the T/C (dose: 0.63 mg/kg/injection, schedule: Q01DX010 (sc), vehicle: Klucel (hydroxypropylcellulose) (HPC)) was 74 % of control; the T/C (dose: 1.25 mg/kg/injection, schedule: Q01DX010 (sc), vehicle: Klucel (hydroxypropylcellulose) (HPC)) was 76 % of control; the T/C (dose: 1.57 mg/kg/injection, schedule: Q01DX010 (sc), vehicle: Klucel (hydroxypropylcellulose) (HPC)) was 79 % of control; the T/C (dose: 2.5 mg/kg/injection, schedule: Q01DX010 (sc), vehicle: Klucel (hydroxypropylcellulose) (HPC)) was 50 % of control; the T/C (dose: 3.13 mg/kg/injection, schedule: Q01DX010 (sc), vehicle: Klucel (hydroxypropylcellulose) (HPC)) was 61 % of control. The T/C (dose: 6.25 mg/kg/injection, schedule: Q01DX010 (sc), vehicle: Klucel (hydroxypropylcellulose) (HPC)) was 66 % of control.
With `C=CC(C)(C)n1cc(C2=C(O)C(=O)C(c3cn(C(C)(C)C=C)c4ccccc34)=C(O)C2=O)c2ccccc21`, the T/C was 63 % of control (dose: 50.0 mg/kg/injection, schedule: Q04DX003 (sc), vehicle: Klucel (hydroxypropylcellulose) (HPC)); 71 % of control (dose: 100.0 mg/kg/injection, schedule: Q04DX003 (sc), vehicle: Klucel (hydroxypropylcellulose) (HPC)); 124 % of control (dose: 200.0 mg/kg/injection, schedule: Q04DX003 (sc), vehicle: Klucel (hydroxypropylcellulose) (HPC)); 83 % of control (dose: 400.0 mg/kg/injection, schedule: Q04DX003 (sc), vehicle: Klucel (hydroxypropylcellulose) (HPC)).
In the case of `CN(C)C(=O)SC1=C(c2c(Cl)cccc2Cl)C(=O)c2ccccc21`, the T/C reads like this: (dose: 300.0 mg/kg/injection, schedule: Q04DX003 (sc), vehicle: Klucel (hydroxypropylcellulose) (HPC)) 84 % of control; (dose: 600.0 mg/kg/injection, schedule: Q04DX003 (sc), vehicle: Klucel (hydroxypropylcellulose) (HPC)) 106 % of control; (dose: 1200.0 mg/kg/injection, schedule: Q04DX003 (sc), vehicle: Klucel (hydroxypropylcellulose) (HPC)) 65 % of control; (dose: 2400.0 mg/kg/injection, schedule: Q04DX003 (sc), vehicle: Klucel (hydroxypropylcellulose) (HPC)) 92 % of control.
For the compound `O=C(O)C1CC(c2ccccc2)=NN1c1ccccc1` (stereo unspecified), the T/C (dose: 150.0 mg/kg/injection, schedule: Q04DX003 (sc), vehicle: water) is 105 % of control.
Regarding `COc1cc(C(=O)N/N=C/c2cccc([N+](=O)[O-])c2)cc(OC)c1OC`, the T/C (dose: 150.0 mg/kg/injection, schedule: Q04DX003 (sc), vehicle: saline with Tween-80) is 86 % of control.
Take `S=C=NCCc1ccccc1`: the T/C under setting [1] is 68 % of control.
As to `COc1ccc(/C=C/C(=O)c2cc(C(=O)O)c(OC)cc2OC)cc1OC`, the T/C is 100 % of control (dose: 300.0 mg/kg/injection, schedule: Q04DX003 (sc), vehicle: suspension in saline); 56 % of control (dose: 600.0 mg/kg/injection, schedule: Q04DX003 (sc), vehicle: suspension in saline); 73 % of control (dose: 1200.0 mg/kg/injection, schedule: Q04DX003 (sc), vehicle: suspension in saline); 66 % of control (dose: 2400.0 mg/kg/injection, schedule: Q04DX003 (sc), vehicle: suspension in saline).
For the compound `[Cl][Mn][Cl]`, the T/C (dose: 75.0 mg/kg/injection, schedule: Q04DX003 (sc), vehicle: saline) was 68 % of control and the T/C (dose: 150.0 mg/kg/injection, schedule: Q04DX003 (sc), vehicle: saline) was 50 % of control.
As to `Cc1cc2c(c3oc(C4(C)OC4C4OC4C)cc(=O)c13)C(=O)c1c(O)c(C3CC(C)(N(C)C)C(O)C(C)O3)cc(C3CC(N(C)C)C(O)C(C)O3)c1C2=O` (stereo unspecified), the T/C reads like this: (dose: 0.03 mg/kg/injection, schedule: Q01DX010 (sc), vehicle: saline) 57 % of control; (dose: 0.06 mg/kg/injection, schedule: Q01DX010 (sc), vehicle: saline) 66 % of control.
Turning to `O=S(=O)(O)O.[NH-]C1CCCCC1[NH-].[Pt+2]` (stereo unspecified), the T/C reads like this: (dose: 0.63 mg/kg/injection, schedule: Q01DX010 (sc), vehicle: dextrose) 85 % of control; (dose: 1.25 mg/kg/injection, schedule: Q01DX010 (sc), vehicle: dextrose) 90 % of control; (dose: 2.5 mg/kg/injection, schedule: Q01DX010 (sc), vehicle: dextrose) 82 % of control.
`C=C1C(C)C2C(Cc3ccccc3)NC(=O)C23C(OC(C)=O)/C=C/C(C)(O)CC(C)C/C=C/C3C1O` (stereo unspecified): the T/C is, setting by setting: (dose: 6.25 mg/kg/injection, schedule: Q04DX003 (sc), vehicle: Klucel (hydroxypropylcellulose) (HPC)) 112 % of control; (dose: 12.5 mg/kg/injection, schedule: Q04DX003 (sc), vehicle: Klucel (hydroxypropylcellulose) (HPC)) 112 % of control.
